The values that follow come from patent US20040265357A1, “Combination of liponic acid and glutamine in food and pharmaceutical products” (priority 2001, published 2004).

Where two headings read alike, the source gives them in different places.

The subject of assay [1] is experimentally induced cerebral ischemia. The following applies: cited from earlier work.
The next assay deals with experimental rat model. The note with it: cited from earlier work; for effectiveness against buthionine sulfoximine-induced cataract: comparison of enantiomers and racemate.
The next assay has as its system rats. The note with it: oral administration; cited from earlier work.
Another assay relates to Human Jurkat T cells. As to the kind of experiment: Increase in intracellular glutathione levels, Jurkat T cells (GSH by HPLC). The format is cell-based. The procedure:
(§1) Human Jurkat T cells and U937 cells, a human myelomonocyclic cell line, were used for the experiments. Jurkat and U937 cells were cultivated in RPMI 1640 medium (Bio Whittaker, Belgium)—supplemented with 10% heat-inactivated fetal calf serum (FCS; Linaris, Germany), 1% penicillin/streptomycin (Life Technologies, Scotland) and 2 mM L-glutamine (Sigma, Mont.)—under standard conditions (95% humidity, 5% CO2 and 37° C.). After harvesting, the cells were washed 2× with PBS, resuspended in standard medium (RPMI 1640 with 10% FCS, 1% streptomycin/penicillin, without L-glutamine) in a concentration of 2×10^5 cells/ml and transferred into […] culture bottles. The cells were treated with and without addition of 2 mM glutamine and in each case with or without 100 μM α-lipoic acid over a period of 4, 8, 24 or 48 h. After the respective treatment period had elapsed, the cells were harvested and washed 2× with PBS. 2×10^6 cells were resuspended in sulfosalicylic acid (6.5% in distilled water; Marck, Germany) and incubated on ice for 15 min. The supernatant after pelleting of the cells (5 000 g, 10 min) was aspirated off and stored at −20° C. until glutathione was determined by HPLC.

In another assay the test system is mice. The note with it: oral administration; cited from earlier work.
For assay [2], the system named is U937 cells, a human myelomonocyclic cell line. Nature of the assay: Increase in intracellular glutathione levels, U937 cells (GSH by HPLC). The class given is cell-based. On the procedure: as §1
In a further assay the test system is aged mice. The note with it: cited from earlier work.
For the next assay, the system named is diabetes patients. The following applies: daily 600 mg for more than 3 months; cited from earlier work.
The next assay concerns mice 6-8 weeks old. The following applies: mice on vitamin E-deficient diet; 1.65 g/kg of body weight; cited from earlier work.
Where [3] appears, read: 0.05 mM glutamine added to culture medium.
Where [4] appears, read: 2 mM glutamine added to culture medium.

Take `O=C(O)CCCC[C@@H](S)CCS` (racemic) [dihydrolipoic acid]: in [1] (50 and 100 mg/kg body weight), the infarct size result is “reduction in the infarct size”.

Turning to `O=C(O)CCCCC1CCSS1` (racemic) [racemic mixture], the “effectiveness against buthionine sulfoximine-induced cataract” value (from here on “effectiveness”) with experimental rat model is recorded as “effective”.

As to `O=C(O)CCCC[C@H]1CCSS1` (single isomer, unassigned) [S enantiomer], in the assay on experimental rat model, the “effectiveness” value is recorded as “effective”.

As to `O=C(O)CCCC[C@@H]1CCSS1` [(R)-α-lipoic acid, (R)-5-(1,2-dithiolan-3-yl) valeric acid], the mitochondrial function entry in the assay with rats was “improvement in mitochondrial function”. In the assay on experimental rat model, the “effectiveness” value is recorded as “effective”.

For `NC(=O)CCC(N)C(=O)O` (stereo not drawn) [glutamine, 2-aminopentanoic acid 5-amide], the “concentration of reduced glutathione (GSH)” value is “no significant change” in the assay with Human Jurkat T cells (setting [3]), “significant increases” in the assay with Human Jurkat T cells (setting [4]), “no significant change” in [2] (setting [3]) and “significant increases” in assay [2] (setting [4]). Further, in the assay on mice, the “number of lymphocytes in Peyer's patches” value is listed as “increased number of lymphocytes”.

As to `O=C(O)CCCCC1CCSS1` (stereo not drawn) [lipoic acid, 5-(1,2-dithiolan-3-yl)valeric acid], the infarct size entry in [1] (iv, 25 mg/kg body weight) is reported as “reduction in the infarct size”. Besides, the long-term memory result with aged mice is “improve the long-term memory”. Also, the “cataract induced by buthionine sulfoximine” value in the assay on experimental rat model (rat model, subcutaneous injection 25 mg/kg body weight twice) was “significant reduction”. In addition, the oxidative stress entry in the assay with diabetes patients is reported as “reduction in oxidative stress”. In addition, the “symptoms of vitamin E deficiency phenomena (muscular dystrophy, weight loss)” value in the assay on mice 6-8 weeks old is “prevents the symptoms”.
